In US20140039044A1, “Hydroxylated Polymethoxyflavone Compositions” (WLLGEN, INC., priority 2006, published 2014):

Experiments:
[1] = system: Ca^2+ influx in MCF-7 cells; experiment: Ca2+ influx (Mn2+ entry rate, fura-2 quench); format: cell-based, human; details: for Increase of Ca^2+ influx (Ca^2+ entry rates): compound 4: 6.25 μM, compound 5: 12.5 μM; for Ca^2+ influx, in words: 25 μM
Description: (§1) To evaluate Ca^2+ influx from the extracellular space, the Mn^2+ entry rate, as a reporter of Ca^2+ influx, was measured. The images were recorded at excitation of 360 nm (the fura-2 isosbestic point) and 2 mM of extracellular Mn^2+. The rates of Ca^2+ entry were estimated from the slope of the liner portion of curves of the fura-2 fluorescence quench by Mn^2+. To evaluate Ca^2+ release from the intracellular stores, cells grown on coverslips were placed in D-PBS, and the mobilizer of the endoplasmic reticulum Ca^2+-stores, thapsigargin (1 μM), was added after recording the basal [Ca^2+]i. The peak values of the [Ca^2+]i increase, indicating the filling level of the Ca^2+-stores, were measured with fura-2.
(§2) To investigate mechanism of a sustained increase in [Ca^2+]i after treatment with PMFs, the rates of the background Ca^2+ influx from the extracellular space and the magnitudes of Ca^2+ release from the endoplasmic reticulum stores with thapsigargin were measured in the treated cells using methods described above.
(§3) In FIG. 11A through 11D, the concentration for each PMF was as follows: compound 4: 6.25 μM; compound 5: 12.5 μM; compound 6: 25 μM; and compound 7: 25 μM. […] The Ca^2+ entry rates (C, D) are presented as tangents of the linear portions of the fura-2 quench curves. Data in panel C are presented as means±SE for control cells or cells treated with PMFs 3 days (black bars) or 6 days (gray bars). […] Mn^2+ or thapsigargin was added after recording the basal level of fluorescence or basal [Ca^2+]i for 30-60 s.

[2] = system: intracellular Ca^2+ stores in MCF-7 cells; experiment: Ca2+ mobilization from endoplasmic reticulum stores with thapsigargin (fura-2); format: cell-based, human; details: for Decrease of the Ca^2+ mobilization response: compound 4: 6.25 μM, compound 5: 12.5 μM; for Filling of the endoplasmic reticulum Ca^2+ stores, in words: 25 μM
Description: as §1, §2, §3

caspase-12 = experiment: Caspase-12 activity assay (fluorogenic substrate, immunofluorescence); format: cell-based, human; details: MCF-7 cells, day 3 or 6, FIG. 12B, 13C,D
Description: Calpain and caspase-12 activities were measured with the cell-permeable fluorogenic peptide substrates t-Boc-Leu-Met-CMAC (50 μM; CMAC, 7-amino-4-chloromethyl coumarin; Molecular Probes) and Ala-Thr-Ala-Asp-AFC (50 μM; AFC, 7-amino-4-trifluoromethyl coumarin; Caspase-12 Fluorometric Assay Kit, BioVision), respectively. See, e.g., Roser and Gores (2000) Meth. Mol. Biol. 144:2452-2466. Polyclonal antibodies directed against caspase-12 (BioVision) and monoclonal antibodies directed against the calpain small (cleaved) subunit (Chemicon) were used to evaluate activation of these proteases. For immunofluorescence labeling, the fixed and permeabilized cell preparations were pre-incubated with non-specific serum for 20 min, incubated for 1 h at 37° C. or overnight at 4° C. with the primary antibodies and 1 h at room temperature with secondary antibodies using ALEXA FLUOR-488 signal-amplification mouse antibodies (Molecular Probes) and FITC- or Texas Red-conjugated anti-rabbit and anti-mouse IgG (Molecular Probes). Fluorescence microscopy was carried out as described above for Ca^2+ imaging. Image analysis and measurement of fluorescence intensity was performed using MetaMorph 6.3 software (Molecular Devices/Universal Imaging), as described previously in Sergeev (1996) Endocrine 5: 335-340.

[3] = system: MCF-7 breast cancer cells; experiment: Apoptosis assay (Annexin V, Hoechst 33342); format: cell-based, human; details: MCF-7 cells; for Apoptosis by morphological criteria (nuclear fragmentation): Hoechst 33342
Description: MCF-7 cells were maintained and assayed as described in Section 8.4 above. Apoptosis was evaluated by the plasma membrane and nuclear changes as previously described in Sergeev (2004) J. Steroid Biochem. Mol. Biol. 89-90:419-425. Briefly, An Annexin V assay (ALEXA FLUOR 488 Annexin V Assay Kit; Molecular Probes) was used for detection of the apoptotic plasma membrane (loss of membrane asymmetry due to phosphatidylserine translocation). Fluorescence (485 nm excitation, 530 nm emission) of the Annexin V-abeled cells grown in 96-well plates was measured in the FLx800 plate reader with KC software (BioTek) and expressed in fluorescence units per 1×10^3 cells. Propidium iodide uptake was used to evaluate non-apoptotic and apoptotic cell death (the dye permeates plasma membrane and stain nucleic acids of both necrotic and the late apoptotic cells). Fluorescence (530 nm excitation, 620 nm emission) of the propidium iodide-labeled cells was also measured in the FLx800 reader. Additionally, HOECHST 33342 and ALEXA FLUOR 488 Annexin V were employed to visualize apoptotic nuclei (nuclear fragmentation) and the apoptotic plasma membrane, respectively. Fluorescence microscopy of HOECHST 33342- and Annexin V-labeled cells was performed as described below for the cellular Ca^2+ and immunofluorescence imaging.

[4] = system: LPS-induced NFκB promoter activities in RAW264.7 macrophages; experiment: NFκB-dependent luciferase reporter assay; format: cell-based, mouse; details: FIG. 5
Description: RAW264.7 cells were seeded in […]. When the cells were confluent, the medium was replaced with serum-free Opti-MEM (Gibco-BRL). Then the cells were transfected with the p-NFκB-Luc plasmid reporter gene using LIPOFECTAMINE™ reagent (Invitrogen). After 6 h incubation, the medium was replaced with complete medium. After 24 h, the cells were trypsinized and equal numbers of cells were plated in 24 well tissue culture plates for 6 h. Cells were then treated with LPS (100 ng/ml) alone or with PMFs (10 or 30 μM) for 12 h. Each well was wash twice with cold PBS and harvested in 100 μl serum-free DMEM, and the luciferase activity was assayed by LUCILITE luciferase reporter gene assay kit (PerkinElamer). Luminescence was measured in a Luminescence counter (Molecular Devices, LMaxII) in single photon counting mode for 2 sec/well, following 5 min adaptation in the dark.
To confirm whether selected PMFs inhibited NFκB binding activity in LPS-induced macrophages, assessment of luciferase expression in cells transiently transfected with NFκB-dependent luciferase reporter plasmid was assessed according to the procedures described above in Section 8.4.

[5] = day 3 and 6 of treatment, dose-dependent

| Structure (SMILES) | Increase of Ca^2+ influx (Ca^2+ entry rates) [1] | Decrease of the Ca^2+ mobilization response [2] | Caspase-12 activation, in words (caspase-12) | Induction of cell apoptosis (ECmin, apparent minimal effective concentration) [3] | Apoptosis by morphological criteria (nuclear fragmentation) [3] | Induction of apoptosis (Annexin V), in words [3, 5] | Ca^2+ influx, in words [1] | Filling of the endoplasmic reticulum Ca^2+ stores, in words [2] | Induction of apoptosis (Annexin V), in words ([3]; 50-100 μM, day 6 of treatment) | Proapoptotic activity (Annexin V), in words ([3]; 25-100 μM, day 6 of treatment) | Rank of inhibitory potency on LPS-induced NFκB transcriptional activity ([4]; RAW264.7, 30 μM) | Inhibition of LPS-induced NFκB transcriptional activity, in words ([4]; RAW264.7, LPS 100 ng/ml, PMF 10 or 30 μM, 12 h) |
| --- | --- | --- | --- | --- | --- | --- | --- | --- | --- | --- | --- | --- |
| COc1ccc(-c2cc(=O)c3c(OC)c(OC)c(OC)cc3o2)cc1O [Compound 5, 3′-hydroxy-5,6,7,4′-tetramethoxyflavone] | 1.6 fold | 1.35 fold | activation | 3.125 µM | confirmed apoptosis | induced apoptosis | – | – | – | – | – | – |
| COc1ccc(-c2cc(=O)c3c(OC)c(OC)c(OC)cc3o2)cc1OC [Compound 7, 5,6,7,3′,4′-pentamethoxyflavone, reference compound] | – | – | No significant calpain and caspase-12 activation | >50 µM | – | – | did not significantly increase Ca^2+ influx | did not affect the filling of the endoplasmic reticulum Ca^2+ stores | only a trend in inducing apoptosis | – | – | – |
| COc1ccc(-c2oc3c(OC)c(OC)c(OC)c(O)c3c(=O)c2OC)cc1OC [Compound C, 5-hydroxy-3,6,7,8,3′,4′-hexamethoxyflavone] | 1.8 fold | 1.5 fold | activation | 1.56 µM | confirmed apoptosis | induced apoptosis | – | – | – | – | – | – |
| COc1ccc(-c2oc3c(OC)c(OC)c(OC)c(OC)c3c(=O)c2OC)cc1OC [D, 3,5,6,7,8,3,4-heptamethoxyflavone, reference compound] | – | – | No significant calpain and caspase-12 activation | >50 µM | confirmed apoptosis | – | did not significantly increase Ca^2+ influx | did not affect the filling of the endoplasmic reticulum Ca^2+ stores | – | low proapototic activity | – | – |
| COc1c(OC)c(OC)c2c(=O)cc(-c3ccc(O)c(O)c3)oc2c1OC [H, 3′,4′-dihydroxy-5,6,7,8-tetramethoxyflavone] | – | – | – | – | – | – | – | – | – | – | greatest inhibitory potency of PMFs tested | inhibited LPS-induced NFκB transcriptional activity in a concentration-dependent manner |
